Data reported in the METLIN SMRT retention time set (Domingo-Almenara et al. 2019).

Test: gradient 5% acetonitrile 3 min, to 50% in 2 min, to 85% in 15 min, held 3 min, 100 µL/min
Conditions: column: Zorbax Extend-C18 2.1 x 50 mm; eluents: water / acetonitrile, 0.1% formic acid
Method in brief: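 Standards, all pure, were combined into mixtures of ~100 molecules and run at 100 μL/min on a Zorbax Extend-C18 column (2.1 × 50 mm, 1.8 μm) with water and acetonitrile, each containing 0.1% formic acid. A coupled quadrupole time-of-flight mass spectrometer operated in positive and negative ionization mode. Retention time values come from computationally picked adduct peaks, each inspected manually.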

| Compound | RP-LC retention time [s] |
| --- | --- |
| COC(=O)C1=CN(c2cc(C)ccc2OC)c2ccccc2S1(=O)=O | 894 |
| COC(=O)C1=CN(c2cccc(C)c2C)c2ccccc2S1(=O)=O | 916 |
| CCN1C(=O)COc2ccc(-c3noc(-c4cccc(C)c4)n3)cc21 | 1210 |
| O=c1ccc(-c2ccc3c(c2)OCO3)nn1CCc1nc(-c2ccc(Cl)cc2)no1 | 1040 |
| CC(C)n1c(=O)c(NCc2ccc(F)cc2Cl)nc2ccncc21 | 686 |
| C[C@H](NC(=O)Cc1cc(F)cc(F)c1)C(=O)N[C@H](C(=O)OC(C)(C)C)c1ccccc1 | 944 |
| CCc1nc2cc(-c3noc(COc4ccccc4C)n3)ccc2o1 | 1270 |
| Cc1noc(Cc2nnc(-c3cccc(F)c3)o2)n1 | 730 |
| O=C(NCc1cccs1)C1CN(C(=O)c2cccs2)CC12CCCCC2 (stereo not drawn) | 856 |
| N#Cc1ccc(C(=O)N2CCN(c3nc(CN4CCCCC4)cs3)CC2)cc1 | 614 |
| O=C1c2cccc3c2[C@H](CCC3)CN1[C@@H]1CN2CCC1CC2 | 678 |
| CN(C)c1ccc(-c2nc(-c3cn(-c4ccc(F)cc4)nn3)no2)cc1 | 1060 |
| CCCn1cnc2cc(CNC(=O)c3ccc(C(C)(C)C)cc3)ccc21 | 720 |
| COc1cccc(NC(=O)CCC2CCN(c3cc(NC4CC4)ncn3)CC2)c1 | 674 |
| Cc1c(Cl)cccc1NC1=NS(=O)(=O)c2ccccc21 | 813 |
| COc1cc(NC(=O)c2cccc([N+](=O)[O-])c2)c(OC)cc1Cl | 921 |
| Nc1nc(N2CCC3(CC2)OCCO3)ncc1S(=O)(=O)c1ccc(Cl)cc1 | 896 |
| COC(=O)c1c(NCc2ccccc2F)c2cccc(Cl)c2[nH]c1=O | 808 |
| Cc1ccc2nc3sc(C(=O)Nc4cccc(C(F)(F)F)c4)cc3c(=O)n2c1 | 980 |
| COCCCNC(=O)C1(c2ccc(NC(=O)c3ccc(Br)cc3)cc2)CCC1 | 820 |

| Compound | RP-LC retention time [s] |
| --- | --- |
| CCn1c(=O)c(NCCc2ccc(Cl)cc2)nc2ccncc21 | 596 |
| C=CCN1CCc2cccc3c2[C@H]1Cc1ccc(O)c(O)c1-3 | 659 |
| O=C(NCc1ccc(F)cc1)C1CCCN(c2nccnc2Sc2ccccc2)C1 (stereo not drawn) | 1020 |
| C[C@H]1CCC/C=C/C2C[C@H](O)C[C@H]2[C@H](O)/C=C/C(=O)O1 (stereo partly drawn) | 732 |
| COc1ccc(-c2nc3ccc(Cl)cn3c2Nc2ccc(C)cc2)cc1 | 838 |
| CC(C(=O)N1CCN(c2ccccn2)CC1)n1ccc2cc(S(=O)(=O)N3CCCCCC3)ccc21 (stereo not drawn) | 738 |
| O=S(=O)(NC1CCCN(c2cc(-c3ccncc3)[nH]n2)C1)c1ccc(Cl)cc1 (stereo not drawn) | 579 |
| O=S(=O)(c1ccc(Br)cc1)N1CCNCC1 | 549 |
| O=C1NCCc2ccc(NC(=O)C3(c4ccc(F)cc4)CC3)cc21 | 706 |
| CCC(=O)N1c2ccc(S(=O)(=O)CCC(=O)N3CCN(c4ccccc4F)CC3)cc2CC1C (stereo not drawn) | 894 |
| COc1cccc(CNc2nc3ccncc3n(C(C)C)c2=O)c1OC | 644 |
| CS/C(=C\c1ccc(C(=O)c2ccc(C)cc2)n1C)S(C)=O (stereo not drawn) | 1120 |
| COc1ccc(-c2cc3c(=O)n(Cc4nc(-c5ccccc5)oc4C)ccn3n2)cc1 | 936 |
| CC(COc1ccccc1Cc1ccccc1)N1CCCCC1 (stereo not drawn) | 852 |
| O=C1CCCc2nc(Nc3nc(-c4ccccc4)c4cc(Cl)ccc4n3)ncc21 | 922 |
| COCCn1cc(CCNC(=O)Nc2c(C)cccc2C)c2cccnc21 | 686 |
| Cc1ccccc1Nc1c(-c2ccc(N(C)C)cc2)nc2ncccn12 | 725 |
| O=C1NCCCn2cc(S(=O)(=O)Nc3ccc(N4CCOCC4)cc3)cc21 | 596 |
| O=C(CCC1CCN(c2cc(NC3CC3)ncn2)CC1)NCc1cnccn1 | 564 |

Continued, values first:

| RP-LC retention time [s] | Compound |
| --- | --- |
| 688 | COc1ccc(C(=O)CC2(O)C(=O)Nc3c(C)cccc32)cc1OC (stereo not drawn) |
| 647 | Cc1ccc(C(=O)N2CCN(c3nnc4ccccn34)CC2)cc1F |
| 937 | Cc1cccc(-c2csc3c(=O)n(Cc4ccc(N5CCCC5=O)cc4)cnc23)c1 |
| 562 | O=C(Nc1ccc2nnc(-c3ccc(C(=O)N4CCCCC4)cc3)n2c1)C1CCC1 |
| 693 | COc1cccc(NC(=O)C2CC(=O)N(c3ccc4c(c3)CCN4C(C)=O)C2)c1 (stereo not drawn) |
| 809 | Cc1ccc(C)c(NC(=O)C2CCN(C(=O)c3ncn4c3COC(c3ccc(F)cc3)C4)CC2)c1 (stereo not drawn) |
| 708 | CCOC(=O)C1CCN(C(=O)CCn2c(=O)oc3ccccc32)CC1 |
| 973 | CCOC(=O)C1CCN(C(=O)c2cc(-c3ccc(C)c(C)c3)[nH]c2C)CC1 |
| 1160 | Cc1cc(C)cc(Nc2nc(C)cc3nn(CC(=O)N4CCC(C)CC4)c(=O)n23)c1 |
| 893 | COc1ccc(-c2cc3n(n2)CCCN(C(=O)c2cc4ccccc4[nH]2)C3)cc1 |
| 662 | O=C([C@@H]1C[C@H](F)CN1C(=O)c1cccs1)N1CCCCC1 |
| 849 | Cc1[nH]c(C(=O)N2CCC(CC(=O)N3CCC(C)CC3)CC2)c(C)c1C(=O)OC(C)C |
| 863 | CCC(=O)Nc1ccc(-n2cnc(C(=O)N3CCN(c4cc(C)ccc4C)CC3)c2)nc1 |
| 999 | CCc1cc(C(=O)N2CCCC2c2ccc(C)cc2)no1 (stereo not drawn) |
| 746 | Cc1ccc(C)c(Nc2c(-c3ccc(N4CCOCC4)cc3)nc3ncccn23)c1 |
| 746 | CCSc1nnc(-c2nn(C)c3c2CN(C(=O)c2c(F)cccc2F)CC3)n1C |
| 735 | Cc1ccccc1NC(=O)Cn1nc(C(=O)N2CCOCC2)c2ccccc21 |
| 911 | Cc1cccc(CCNC(=O)Cc2csc3nc(-c4ccc(C)c(C)c4)cn23)c1 |
| 993 | Cc1ccc(Cn2c(N3CCCC(C(=O)NCc4ccc(F)cc4)C3)nc3ccsc3c2=O)cc1 (stereo not drawn) |
| 646 | Cc1ccc2[nH]c(=O)c(CCC(=O)N(C)Cc3cn(C)nc3C)cc2c1 |
| 617 | CCC(C)NC(=O)c1cnn(-c2cc(-c3nc(C(C)C)no3)ccn2)c1C (stereo not drawn) |
| 1340 | Cc1ccc(NC(=O)c2c(O)c3cccnc3n(-c3ccc(F)cc3)c2=O)cc1F |
| 937 | CCCc1nc(-c2c(C)cc(C)nc2NC(=O)c2ccc(F)cc2Cl)no1 |
| 587 | CCOC(=O)CC(=O)Nc1cc2c(cc1N1CCCC1)n(C)c(=O)n2C |
| 746 | CCOC(=O)c1[nH]c(C)c(CCC(=O)N2CCCC(C(=O)NC3CCCC3)C2)c1C (stereo not drawn) |

| RP-LC retention time [s] | Compound |
| --- | --- |
| 589 | Cc1cccc(-c2nnc(C)c(N3CCN(c4ccccn4)CC3)n2)c1 |
| 699 | Cc1nc(CNC(=O)C2CCN(C(=O)Nc3ccc(Br)cc3F)CC2)cs1 |
| 650 | CN(CCNC(=O)C1CCCN(c2nnc(-n3cccc3)s2)C1)C1CCCCC1 (stereo not drawn) |
| 742 | Cc1ccc(-n2nnc(-c3nc(C)c(C(=O)N4CCC(C(N)=O)CC4)s3)c2C)cc1C |
| 987 | CC1CCN(C(=O)CN2C(=O)CCCc3cc(S(=O)(=O)N4CCC(C)CC4)ccc32)CC1 |
| 860 | Cc1ccc(-n2nc(N3CCCN(S(=O)(=O)c4ccccc4F)CC3)ccc2=O)cc1 |
| 828 | Cc1ccc(NC(=O)Cn2nc(C(=O)N3CCCC3)c3ccccc32)cc1C |
| 761 | COC(=O)Cn1c(C)cc(=O)n2nc(-c3ccccc3C)nc12 |
| 1090 | Cc1ccc2c(c1)N(S(C)(=O)=O)CCC(C(=O)Nc1ccc(C)c(Cl)c1)O2 (stereo not drawn) |
| 905 | O=C(Nc1ccc2c(c1)CCC2)C1CCc2nc(N3CCCCC3)ncc2C1 (stereo not drawn) |
| 1030 | Cc1ccc(N2CCN(c3nccn4c(=O)n(CC(=O)Nc5cc(C)cc(C)c5)nc34)CC2)cc1 |
| 784 | Cc1cc(S(=O)(=O)N2CCC(n3cnnc3C3CC3)CC2)ccc1Cl |
| 652 | Cc1nnc2ccc(N3CCN(C(=O)CSc4nc5ccccc5s4)CC3)nn12 |
| 698 | CCOC(=O)c1c(CN2CCOCC2)n(C)c2cc(Br)c(OC)cc12 |
| 778 | COc1ccccc1NC(=O)Cn1nc2c(N(C)C3CCCCC3)nccn2c1=O |
| 750 | CC(C)S(=O)(=O)c1ccc(CC(=O)N2CCCC(c3nnc(C(F)(F)F)o3)C2)cc1 (stereo not drawn) |
| 706 | Cc1ccc(Sc2nccnc2N2CCC(C(=O)N3CCN(c4ccccn4)CC3)CC2)cc1 |
| 759 | CCN1c2ccc(F)cc2C(=O)NC12CCN(C(=O)c1ccccc1OC)CC2 |
| 705 | CSc1cccc(NC(=O)Cn2c(=O)n(C3CC3)c(=O)c3nscc32)c1 |
| 971 | COc1cc(OC)c(NC(=O)N2CCCC(C)(C(=O)NCc3ccc(C)cc3)C2)cc1Cl (stereo not drawn) |
| 848 | Cc1cc(C)cc(NC(=O)C2CCc3nc(N4CCOCC4)ncc3C2)c1 (stereo not drawn) |
| 1080 | CCOc1cc(C(=O)N2CCCC2c2nc(-c3ccc(OC)cc3)no2)cc(OCC)c1OCC (stereo not drawn) |
| 772 | CCc1cc(=O)n(CC(=O)Nc2ccc(OC)c(Cl)c2)c(N2CCOCC2)n1 |
| 1020 | CSc1ccc(CNC(=O)Cn2nc(-n3cccc3)c3c(C)cc(C)nc32)cc1 |
